Source: patent US11312705B2, “Heteroaryl[4,3-C]pyrimidine-5-amine derivative, preparation method therefor, and medical uses thereof” (Jiangsu Hengrui Medicine Co., Ltd., priority 2017, dated 2022)

Key:
Format in all cases: cell-based
[1] = target: adenosine A1 receptor (A1R) (Homo sapiens (Human), UniProt P30542); test: Inhibition of adenosine A1 receptor cAMP signaling pathway (HTRF cAMP, CHO-K1/A1R cells); conditions: Table 2; for IC50: CHO-K1/A1R cells, forskolin 10 μM, CPA 10 nM, cAMP HTRF; for IC50 ratio (A1R/A2aR): selectivity A1R over A2aR
Text: (§1) Test Example 1. Determination of the inhibition activity of the compounds of the present invention on the adenosine A2a receptor (A2aR) cAMP signaling pathway, the adenosine A2b receptor (A2bR) cAMP signaling pathway, the adenosine A1 receptor (A1R) cAMP signaling pathway and the adenosine A3 receptor (A3R) cAMP signaling pathway.
(§2) The inhibition activity of the compounds of the present invention on the adenosine A2a receptor cAMP signaling pathway, the adenosine A2b receptor cAMP signaling pathway, the adenosine A1 receptor cAMP signaling pathway and the adenosine A3 receptor cAMP signaling pathway was determined by the following method. The experimental method is briefly described as follows:
2.2 Adenosine A1 receptor
(§3) CHO-K1/A1R cells were cultured in DMEM/F12 medium containing 10% fetal bovine serum and 1 mg/ml G418. The cells were digested with the cell separation buffer during the experiment. The cells were then resuspended in the balanced salt buffer containing 20 mM HEPES and 0.1% bovine serum albumin and counted, and the cell density was adjusted to 5×10^5 cells/ml. In the 384-well plate, each well was added with 12.5 μl of cell suspension, and 6.25 μl of test compound (4× concentration) formulated with the balanced salt buffer containing 20 mM HEPES, 0.1% bovine serum albumin, 54 μM rolipram and 2.7 U/ml adenosine deaminase, and the plate was incubated at room temperature for 30 minutes. Each well was then added with 6.25 μl of forskolin and N6-cyclopentyladenosine (4× concentration) formulated with the balanced salt buffer containing 20 mM HEPES, 0.1% bovine serum albumin, 54 μM rolipram and 2.7 U/ml adenosine deaminase, and the plate was incubated at room temperature for 30 minutes. The final concentrations of the compounds were: 100000, 10000, 1000, 100, 10, 1, 0.1 and 0 nM. The final concentration of forskolin was 10 μM. The final concentration of CPA was 10 nM. Intracellular cAMP concentration was detected with the cAMP dynamic 2 kit. cAMP-d2 and Anti-cAMP-Eu-Cryptate were diluted respectively with the cAMP lysis buffer at a ratio of 1:4. Each well was added with 12.5 μl of diluted cAMP-d2, followed by addition of 12.5 μl of diluted Anti-cAMP-Eu-Cryptate, and the plate was incubated at room temperature in the dark for 1 hour. The HTRF signal values were read by the PHERAstar multi-function microplate reader.

[2] = target: adenosine A3 receptor (A3R) (Homo sapiens (Human), UniProt P0DMS8); test: Inhibition of adenosine A3 receptor cAMP signaling pathway (HTRF cAMP, CHO-K1/A3R cells); conditions: Table 2; for IC50: CHO-K1/A3R cells, forskolin 10 μM, 2Cl-IB-MECA 5 nM, cAMP HTRF
Text: as §1, §2
2.3 Adenosine A3 receptor
as §3, with “CHO-K1/A3R cells were” for “CHO-K1/A1R cells were”, “serum and 10 μg/ml puromycin. The cells” for “serum and 1 mg/ml G418. The cells”, “cells were resuspended in” for “cells were then resuspended in”, “forskolin and 2Cl-IB-MECA (4× concentration)” for “forskolin and N6-cyclopentyladenosine (4× concentration)”, “concentration of 2Cl-IB-MECA was 5” for “concentration of CPA was 10”, “2Cl-IB-MECA was 5 nM. Intracellular” for “CPA was 10 nM. Intracellular”

[3] = target: adenosine A2a receptor (A2aR) (Homo sapiens (Human), UniProt P29274); test: Inhibition of adenosine A2a receptor cAMP signaling pathway (HTRF cAMP, CHO-K1/A2aR cells)
Text: as §1, §2
2.1 Adenosine A2a Receptor
CHO-K1/A2aR cells were cultured in DMEM/F12 medium containing 10% fetal bovine serum and 800 μg/ml bleomycin. The cells were digested with the cell separation buffer during the experiment. The cells were resuspended in the balanced salt buffer containing 20 mM HEPES and 0.1% bovine serum albumin and counted, and the cell density was adjusted to 10^6 cells/ml. In the 384-well plate, each well was added with 5 μl of cell suspension, and 2.5 μl of test compound (4× concentration) formulated with the balanced salt buffer containing 20 mM HEPES, 0.1% bovine serum albumin, 54 μM rolipram and 2.7 U/ml adenosine deaminase, and the plate was incubated at room temperature for 30 minutes. Each well was then added with 2.5 μl of […] (4× concentration) formulated with the balanced salt buffer containing 20 mM HEPES, 0.1% bovine serum albumin, 54 μM rolipram and 2.7 U/ml adenosine deaminase, and the plate was incubated at room temperature for 30 minutes. The final concentrations of the compounds were: 10000, 2000, 400, 80, 16, 3.2, 0.64, 0.128, 0.0256, 0.00512, and 0.001024 nM. The final concentration of […] was 20 nM. Intracellular cAMP concentration was detected with the cAMP dynamic 2 kit. cAMP-d2 and Anti-cAMP-Eu-Cryptate were diluted respectively with the cAMP lysis buffer at a ratio of 1:4. Each well was added with 5 μl of diluted cAMP-d2, followed by addition of 5 μl of diluted Anti-cAMP-Eu-Cryptate, and the plate was incubated at room temperature in the dark for 1 hour. The HTRF signal values were read by the PHERAstar multi-function microplate reader.

[4] = target: adenosine A2b receptor (A2bR) (Homo sapiens (Human), UniProt P29275); test: Inhibition of adenosine A2b receptor cAMP signaling pathway (HTRF cAMP, CHO-K1/A2bR cells); conditions: Table 3; for IC50: CHO-K1/A2bR cells, ethyl carbazole 1 μM, cAMP HTRF; for IC50 ratio (A2bR/A2aR): selectivity A2bR over A2aR
Text: as §1, §2
2.4 Adenosine A2b receptor (A2bR)
CHO-K1/A2bR cells were cultured in DMEM/F12 medium containing 10% fetal bovine serum and 1 mg/ml G418. The cells were digested with the cell separation buffer during the experiment. The cells were resuspended in the balanced salt buffer containing 20 mM HEPES and 0.1% bovine serum albumin and counted, and the cell density was adjusted to 10^6 cells/ml. In the 384-well plate, each well was added with 5 μl of cell suspension, and 2.5 μl of test compound (4× concentration) formulated with the balanced salt buffer containing 20 mM HEPES, 0.1% bovine serum albumin, 54 μM rolipram and 2.7 U/ml adenosine deaminase, and the plate was incubated at room temperature for 30 minutes. Each well was then added with 2.5 μl of […] (4× concentration) (Torcis, 1691/10) formulated with the balanced salt buffer containing 20 mM HEPES, 0.1% bovine serum albumin, 54 μM rolipram and 2.7 U/ml adenosine deaminase, and the plate was incubated at room temperature for 30 minutes. The final concentrations of the compounds were: 100000, 10000, 1000, 100, 10, 1, 0.1 and 0 nM. The final concentration of […] was 1 μM. Intracellular cAMP concentration was detected with the cAMP dynamic 2 kit. cAMP-d2 and Anti-cAMP-Eu-Cryptate were diluted respectively with the cAMP lysis buffer at a ratio of 1:4. Each well was added with 5 μl of diluted cAMP-d2, followed by addition of 5 μl of diluted Anti-cAMP-Eu-Cryptate, and the plate was incubated at room temperature in the dark for 1 hour. The HTRF signal values were read by the PHERAstar multi-function microplate reader.

Chain of adenosine A2b receptor (A2bR) (P29275 whole entry): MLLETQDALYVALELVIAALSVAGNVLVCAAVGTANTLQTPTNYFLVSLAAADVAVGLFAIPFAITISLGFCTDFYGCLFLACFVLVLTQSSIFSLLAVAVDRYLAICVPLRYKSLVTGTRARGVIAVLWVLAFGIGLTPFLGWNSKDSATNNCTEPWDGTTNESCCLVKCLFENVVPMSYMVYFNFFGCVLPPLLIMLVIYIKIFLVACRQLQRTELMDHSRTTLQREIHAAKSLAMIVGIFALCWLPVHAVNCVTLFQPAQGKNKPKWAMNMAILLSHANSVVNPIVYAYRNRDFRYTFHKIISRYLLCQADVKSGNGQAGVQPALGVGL
Chain of adenosine A2a receptor (A2aR) (P29274 whole entry): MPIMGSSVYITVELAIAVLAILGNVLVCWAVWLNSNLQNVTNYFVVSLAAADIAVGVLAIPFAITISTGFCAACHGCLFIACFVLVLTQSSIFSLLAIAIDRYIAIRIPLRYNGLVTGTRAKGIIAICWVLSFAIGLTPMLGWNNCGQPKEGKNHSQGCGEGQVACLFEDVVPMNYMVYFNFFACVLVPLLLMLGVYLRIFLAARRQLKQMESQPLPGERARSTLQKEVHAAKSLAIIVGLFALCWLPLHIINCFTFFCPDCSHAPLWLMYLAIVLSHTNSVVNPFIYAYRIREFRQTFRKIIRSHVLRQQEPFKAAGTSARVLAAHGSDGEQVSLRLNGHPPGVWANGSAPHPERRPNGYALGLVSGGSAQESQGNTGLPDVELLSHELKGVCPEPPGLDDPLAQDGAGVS
Chain of adenosine A3 receptor (A3R) (P0DMS8 whole entry): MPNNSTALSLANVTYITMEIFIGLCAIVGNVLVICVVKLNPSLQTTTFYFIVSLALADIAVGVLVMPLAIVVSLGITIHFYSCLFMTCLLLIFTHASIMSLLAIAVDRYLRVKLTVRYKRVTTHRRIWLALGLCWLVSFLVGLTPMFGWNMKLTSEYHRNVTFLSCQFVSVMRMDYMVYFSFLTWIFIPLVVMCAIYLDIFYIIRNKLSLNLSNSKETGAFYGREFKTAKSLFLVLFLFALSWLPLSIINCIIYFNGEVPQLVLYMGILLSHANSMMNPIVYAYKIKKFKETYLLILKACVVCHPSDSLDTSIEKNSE
Chain of adenosine A1 receptor (A1R) (P30542 whole entry): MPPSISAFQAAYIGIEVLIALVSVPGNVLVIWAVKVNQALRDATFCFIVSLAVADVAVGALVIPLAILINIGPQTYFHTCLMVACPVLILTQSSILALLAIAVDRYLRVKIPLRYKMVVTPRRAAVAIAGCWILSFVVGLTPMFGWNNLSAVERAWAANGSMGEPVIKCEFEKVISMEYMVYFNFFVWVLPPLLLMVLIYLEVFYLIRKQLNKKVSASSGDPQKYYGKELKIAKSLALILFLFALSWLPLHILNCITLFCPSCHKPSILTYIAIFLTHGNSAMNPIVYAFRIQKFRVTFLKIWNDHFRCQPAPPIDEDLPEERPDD

SMILES: Cc1cc(-c2c(-c3ccc(F)cc3)nc(N)n3cnnc23)cc(C)n1 [Example 28, 8-(2,6-Dimethylpyridin-4-yl)-7-(4-fluorophenyl)-[1,2,4]triazolo[4,3-c]pyrimidin-5-amine]
- IC50 [1]: 66 nM
- IC50 ratio (A1R/A2aR) [1]: 127
- IC50 ratio (A3R/A2aR) [2]: >1.9 × 10^4
- IC50 [2]: > 10000 nM
- IC50 ([3]; Table 1, ethyl carbazole 20 nM): 0.52 nM
- IC50 ([3]; Table 2, ethyl carbazole 20 nM): 0.52 nM

SMILES: Cc1cc(-c2c(-c3ccccc3F)nc(N)n3cnnc23)cc(Cl)n1 [Example 27, 8-(2-Chloro-6-methylpyridin-4-yl)-7-(2-fluorophenyl)-[1,2,4]triazolo[4,3-c]pyrimidin-5-amine]
- IC50 [1]: 71 nM
- IC50 ratio (A1R/A2aR) [1]: 142
- IC50 ratio (A3R/A2aR) [2]: >2 × 10^4
- IC50 [2]: > 10000 nM
- IC50 ([3]; Table 1, ethyl carbazole 20 nM): 0.5 nM
- IC50 ([3]; Table 2, ethyl carbazole 20 nM): 0.5 nM

SMILES: Nc1nc(-c2ccccc2)c(-c2cc(F)c3ncccc3c2)c2nncn12 [Example 7, 8-(8-Fluoroquinolin-6-yl)-7-phenyl-[1,2,4]triazolo[4,3-c]pyrimidin-5-amine]
- IC50 [1]: 16 nM
- IC50 ratio (A1R/A2aR) [1]: 100
- IC50 ratio (A3R/A2aR) [2]: 3.1 × 10^4
- IC50 [2]: 5000 nM
- IC50 ([3]; Table 1, ethyl carbazole 20 nM): 0.16 nM
- IC50 ([3]; Table 2, ethyl carbazole 20 nM): 0.16 nM

SMILES: Cc1cc(-c2c(-c3ccccc3)nc(N)n3cnnc23)cc(C)n1 [Example 11, 8-(2,6-Dimethylpyridin-4-yl)-7-phenyl-[1,2,4]triazolo[4,3-c]pyrimidin-5-amine]
- IC50 [1]: 102 nM
- IC50 ratio (A1R/A2aR) [1]: 680
- IC50 ratio (A3R/A2aR) [2]: >6.7 × 10^4
- IC50 [2]: > 10000 nM
- IC50 ([3]; Table 1, ethyl carbazole 20 nM): 0.15 nM
- IC50 ([3]; Table 2, ethyl carbazole 20 nM): 0.15 nM

SMILES: Cc1cc(-c2c(-c3ccc(Cl)cc3)nc(N)n3cnnc23)cc(C(F)F)n1 [Example 52, 7-(4-Chlorophenyl)-8-(2-(difluoromethyl)-6-methylpyridin-4-yl)-[1,2,4]triazolo[4,3-c]pyrimidin-5-amine]
- IC50 [1]: 41 nM
- IC50 ratio (A1R/A2aR) [1]: 85
- IC50 ratio (A3R/A2aR) [2]: >10^4
- IC50 [2]: > 10000 nM
- IC50 ([3]; Table 1, ethyl carbazole 20 nM): 0.48 nM
- IC50 ([3]; Table 2, ethyl carbazole 20 nM): 0.48 nM

SMILES: Cc1cc(-c2c(-c3ccc(F)cc3)nc(N)n3cnnc23)cc(C(F)F)n1 [Example 51, 8-(2-(Difluoromethyl)-6-methylpyridin-4-yl)-7-(4-fluorophenyl)-[1,2,4]triazolo[4,3-c]pyrimidin-5-amine]
- IC50 [1]: 418 nM
- IC50 ratio (A1R/A2aR) [1]: 1161
- IC50 ratio (A3R/A2aR) [2]: >10^4
- IC50 [2]: > 10000 nM
- IC50 ([3]; Table 1, ethyl carbazole 20 nM): 0.36 nM
- IC50 ([3]; Table 2, ethyl carbazole 20 nM): 0.36 nM

SMILES: Cc1cc(-c2c(-c3ccc(C)o3)nc(N)n3cnnc23)cc(C(F)(F)F)n1 [Example 8, 8-(2-Methyl-6-(trifluoromethyl)pyridin-4-yl)-7-(5-methylfuran-2-yl)-[1,2,4]triazolo[4,3-c]pyrimidin-5-amine]
- IC50 [4]: 203 nM
- IC50 ratio (A2bR/A2aR) [4]: 1125
- IC50 ([3]; Table 1, ethyl carbazole 20 nM): 0.18 nM
- IC50 ([3]; Table 3, ethyl carbazole 20 nM): 0.18 nM

SMILES: Cc1cc(-c2c(-c3ccccc3)nc(N)n3cnnc23)cc2cccnc12 [Example 5, 8-(8-Methylquinolin-6-yl)-7-phenyl-[1,2,4]triazolo[4,3-c]pyrimidin-5-amine]
- IC50 [1]: 12 nM
- IC50 ratio (A1R/A2aR) [1]: 133
- IC50 ratio (A3R/A2aR) [2]: 1.5 × 10^4
- IC50 [2]: 1400 nM
- IC50 ([3]; Table 1, ethyl carbazole 20 nM): 0.09 nM
- IC50 ([3]; Table 2, ethyl carbazole 20 nM): 0.09 nM

SMILES: Nc1nc(-c2ccccc2)c(-c2ccc3ncccc3c2)c2nncn12 [Example 3, 7-Phenyl-8-(quinolin-6-yl)-[1,2,4]triazolo[4,3-c]pyrimidin-5-amine]
- IC50 [1]: 18 nM
- IC50 ratio (A1R/A2aR) [1]: 257
- IC50 ratio (A3R/A2aR) [2]: 2.9 × 10^4
- IC50 [2]: 2000 nM
- IC50 ([3]; Table 1, ethyl carbazole 20 nM): 0.07 nM
- IC50 ([3]; Table 2, ethyl carbazole 20 nM): 0.07 nM

SMILES: Nc1nc(-c2ccccc2)c(-c2ccc3[nH]ncc3c2)c2nncn12 [Example 10, 8-(1H-indazol-5-yl)-7-phenyl-[1,2,4]triazolo[4,3-c]pyrimidin-5-amine]
- IC50 [4]: 91 nM
- IC50 ratio (A2bR/A2aR) [4]: 350
- IC50 ([3]; Table 1, ethyl carbazole 20 nM): 0.26 nM
- IC50 ([3]; Table 3, ethyl carbazole 20 nM): 0.26 nM

SMILES: Cc1cc(-c2c(-c3ccc(F)cc3)nc(N)n3cnnc23)cc(Cl)n1 [Example 15, 8-(2-Chloro-6-methylpyridin-4-yl)-7-(4-fluorophenyl)-[1,2,4]triazolo[4,3-c]pyrimidin-5-amine]
- IC50 [4]: 98.9 nM
- IC50 ratio (A2bR/A2aR) [4]: 582
- IC50 ([3]; Table 1, ethyl carbazole 20 nM): 0.17 nM
- IC50 ([3]; Table 3, ethyl carbazole 20 nM): 0.17 nM
